{"source": "paper PMC10482975", "about": "(Nature Communications, 2023)", "origin": "cited, not measured here", "molecular_target": "M2 mAChR", "details": "read-out: predicted affinity for allosteric binding; cited from earlier work"}
{"compound": "C[N+](C)(C)CC#CCN1CCCC1=O", "note": "[oxotremorine-M]", "values": [{"measurement": "Kd", "value": "> 1000", "unit": "µM"}]}
